According to the Deep4Chem optical property database:
Blank lines part the entries; values can stand above or below the molecule they belong to.

Experiment: photoluminescence quantum yield (fraction); solvent given as SMILES
[1] = in c1cc(-c2cccc(-n3c4ccccc4c4ccccc43)c2)cc(-n2c3ccccc3c3ccccc32)c1
[2] = in O=P(c1ccccc1)(c1ccccc1)c1ccccc1Oc1ccccc1P(=O)(c1ccccc1)c1ccccc1

SMILES: CC(C)(C)c1ccc2c(c1)c1cc(C(C)(C)C)ccc1n2-c1ccc(N(c2ccc(-c3ccc(-c4ccc(-c5ccc(-c6ccc(-c7ccc(N(c8ccc(-n9c%10ccc(C(C)(C)C)cc%10c%10cc(C(C)(C)C)ccc%109)cc8)c8ccc(-n9c%10ccc(C(C)(C)C)cc%10c%10cc(C(C)(C)C)ccc%109)cc8)cc7)s6)s5)s4)s3)cc2)c2ccc(-n3c4ccc(C(C)(C)C)cc4c4cc(C(C)(C)C)ccc43)cc2)cc1
photoluminescence quantum yield (in ClCCl): 0.14

SMILES: CCN(CC)c1ccc2cc(-c3nc4c5ccccc5c5ccccc5c4n3-c3ccc(C(C)(C)C)cc3)c(=O)oc2c1
photoluminescence quantum yield (in ClCCl): 0.97

SMILES: c1ccc(-n2c3ccccc3c3c2c2ccccc2n3-c2ccccc2)cc1
photoluminescence quantum yield (in Cc1ccccc1): 0.404

SMILES: C=C(C)C(CN1C(=O)c2cccc3c2c(cc2oc(C)nc23)C1=O)OO (stereo unspecified)
photoluminescence quantum yield (in CCO): 0.096

SMILES: Cn1c2ccccc2c2c1c1ccccc1n2C
photoluminescence quantum yield (in CCCO): 0.81

SMILES: F[B-]1(F)OC(c2ccc3ccccc3c2)=CC(c2ccc3ccccc3c2)=[O+]1
photoluminescence quantum yield (in CC#N): 0.7
photoluminescence quantum yield (in ClC(Cl)(Cl)Cl): 0.9

SMILES: CC(C)(C)c1ccc2c(c1)c1cc(C(C)(C)C)ccc1n2-c1cc(C(=O)c2ccncc2)cc(-n2c3ccc(C(C)(C)C)cc3c3cc(C(C)(C)C)ccc32)c1
photoluminescence quantum yield (in Cc1ccccc1): 0.075
photoluminescence quantum yield [1]: 0.97

SMILES: COc1ccc(-c2sc3c(-c4ccc(OC)cc4)c4n(c3c2-c2ccc(OC)cc2)[B-](F)(F)[N+]2=Cc3c(-c5ccc(OC)cc5)c5sc(-c6ccc(OC)cc6)c(-c6ccc(OC)cc6)c5n3[B-](F)(F)[N+]2=C4)cc1
photoluminescence quantum yield (in CC#N): 0.36
photoluminescence quantum yield (in CCCCCC): 0.46
photoluminescence quantum yield (in CN(C)C=O): 0.32
photoluminescence quantum yield (in Cc1ccccc1): 0.51
photoluminescence quantum yield (in ClCCl): 0.5

SMILES: CCC1=C(C)c2cc3c(OC)cc(OC)cc3c(=O)n2C1=O
photoluminescence quantum yield (in CC#N): 0.54
photoluminescence quantum yield (in CO): 0.44
photoluminescence quantum yield (in CS(C)=O): 0.6
photoluminescence quantum yield (in ClC(Cl)Cl): 0.6

SMILES: CN(C)c1ccc(/C=C/C=C/c2nc3ccccc3o2)cc1
photoluminescence quantum yield (in CC#N): 0.0055
photoluminescence quantum yield (in CCCCCC): 0.0176
photoluminescence quantum yield (in CCCCO): 0.0045
photoluminescence quantum yield (in CCCO): 0.0045
photoluminescence quantum yield (in CCO): 0.0048
photoluminescence quantum yield (in CN(C)C=O): 0.007
photoluminescence quantum yield (in CO): 0.0045
photoluminescence quantum yield (in Cc1ccccc1): 0.0078
photoluminescence quantum yield (in ClCCl): 0.0048
photoluminescence quantum yield (in OCC(O)CO): 0.0359
photoluminescence quantum yield (in OCCO): 0.0088

SMILES: COc1ccccc1C1=[N+]2C(=Nc3c(-c4ccccc4)cc(-c4ccccc4OC)n3[B-]2(F)F)C(c2ccccc2)=C1
photoluminescence quantum yield (in Cc1ccccc1): 0.07

SMILES: c1ccc(C2CCN3COc4c5ccccc5c5c6c7c(c2c3c46)C(c2ccccc2)CCN7CO5)cc1 (stereo unspecified)
photoluminescence quantum yield (in C1CCCCC1): 0.715
photoluminescence quantum yield (in C1CCOC1): 0.124
photoluminescence quantum yield (in C1COCCO1): 0.183
photoluminescence quantum yield (in CC#N): 0.025
photoluminescence quantum yield (in CC(C)=O): 0.046
photoluminescence quantum yield (in CCOC(C)=O): 0.108
photoluminescence quantum yield (in CCOCC): 0.227
photoluminescence quantum yield (in CN(C)C=O): 0.039
photoluminescence quantum yield (in CO): 0.023
photoluminescence quantum yield (in CS(C)=O): 0.026
photoluminescence quantum yield (in Cc1ccccc1): 0.871
photoluminescence quantum yield (in ClC(Cl)Cl): 0.053
photoluminescence quantum yield (in ClCCl): 0.066

SMILES: c1ccc(-c2nc(-c3ccccc3)nc(-c3ccc(-n4c5ccccc5c5ccc6c7ccccc7n(-c7ccccc7)c6c54)cc3)n2)cc1
photoluminescence quantum yield (in O=P(c1ccccc1)(c1ccccc1)c1ccc2oc3ccc(P(=O)(c4ccccc4)c4ccccc4)cc3c2c1): 0.84

SMILES: [C-]#[N+]c1ccc(-c2ccc(N(C)C)cc2)cc1
photoluminescence quantum yield (in C1CCCCC1): 0.82
photoluminescence quantum yield (in C1CCOC1): 0.85
photoluminescence quantum yield (in C1COCCO1): 0.74
photoluminescence quantum yield (in CC#N): 0.89
photoluminescence quantum yield (in CC(C)=O): 0.54
photoluminescence quantum yield (in CCCCCC): 0.66
photoluminescence quantum yield (in CCOC(C)=O): 0.54
photoluminescence quantum yield (in CN(C)C=O): 0.86
photoluminescence quantum yield (in CO): 0.15
photoluminescence quantum yield (in CS(C)=O): 0.76
photoluminescence quantum yield (in Cc1ccccc1): 0.62
photoluminescence quantum yield (in ClC(Cl)Cl): 0.19
photoluminescence quantum yield (in ClCCl): 0.8
photoluminescence quantum yield (in O): 0.016
photoluminescence quantum yield (in c1ccncc1): 0.63

SMILES: CCC1=C(C)C(=O)n2c1cc1c(c(C)c(C(=O)OC)n1C)c2=O
photoluminescence quantum yield (in C1CCCCC1): 0.03
photoluminescence quantum yield (in CO): 0.66
photoluminescence quantum yield (in CS(C)=O): 0.8
photoluminescence quantum yield (in ClC(Cl)Cl): 0.71
photoluminescence quantum yield (in c1ccccc1): 0.18

SMILES: CC1(C)c2ccccc2-n2c(-c3ccc(N4c5ccccc5Sc5ccccc54)cc3)nc3cccc1c32
photoluminescence quantum yield (in Cc1ccccc1): 0.08
photoluminescence quantum yield [2]: 0.05

SMILES: CN(C)c1ccc(N(C)C)cc1
photoluminescence quantum yield (in C1CCCCC1): 0.21

SMILES: CCCCN1C(=O)c2cccc3cccc(c23)C1=O
photoluminescence quantum yield (in Cc1ccccc1): 0.04

SMILES: O=C(c1ccc(-n2c3ccccc3c3cc(-n4c5ccccc5c5ccccc54)ccc32)cc1)c1ccc(-n2c3ccccc3c3cc(-n4c5ccccc5c5ccccc54)ccc32)cn1
photoluminescence quantum yield (in Cc1ccccc1): 0.38
photoluminescence quantum yield [2]: 0.73

SMILES: CCCCOC(=O)c1cc(Oc2ccc(OC)cc2)c2c3c(Cl)cc4c5c(cc(Cl)c(c6c(Oc7ccc(OC)cc7)cc(C(=O)OCCCC)c1c26)c53)C(=O)N(c1c(C(C)C)cccc1C(C)C)C4=O
photoluminescence quantum yield (in Cc1ccccc1): 0.55

SMILES: CCCCN(CCCC)c1ccc(/C=C/c2ccc3c(c2)CCc2cc(/C=C/c4ccc(N(CCCC)CCCC)cc4)ccc2-3)cc1
photoluminescence quantum yield (in CS(C)=O): 0.87
photoluminescence quantum yield (in Cc1ccccc1): 0.71

SMILES: CCCN1c2ccccc2Sc2cc(/C=C\c3cc(=O)oc4cc(NC(=O)OCC)ccc34)ccc21
photoluminescence quantum yield (in ClC(Cl)Cl): 0.62

SMILES: COc1ccc(/C=C/C2=C3CCc4ccccc4C3=[O+][B-](F)(F)O2)cc1
photoluminescence quantum yield (in ClCCl): 0.04

SMILES: CCC1(CC)c2cc(C=C(C#N)C#N)ccc2-c2ccc(N(C)C)cc21
photoluminescence quantum yield (in C1CCCCC1): 0.04
photoluminescence quantum yield (in CC#N): 0.26
photoluminescence quantum yield (in CCO): 0.18
photoluminescence quantum yield (in CCOCC): 0.39
photoluminescence quantum yield (in CS(C)=O): 0.24
photoluminescence quantum yield (in ClCCl): 0.62
photoluminescence quantum yield (in c1ccccc1): 0.22

The remaining lines, values ahead:

photoluminescence quantum yield (in CC#N): 0.35
SMILES: COc1ccc(/C=C/c2nc3c4ccccc4c4ccccc4c3o2)cc1

photoluminescence quantum yield (in ClCCl): 0.26
SMILES: C(#Cc1cc(C#Cc2ccccc2)c(C#Cc2ccccc2)c(C#Cc2ccccc2)c1C#Cc1ccccc1)c1ccccc1

photoluminescence quantum yield (in CC#N): 0.034
SMILES: CC(C)Oc1ccc(C#Cc2ccc3ccc(=O)oc3c2)cc1

photoluminescence quantum yield (in ClCCl): 0.35
SMILES: Fc1ccc(C2=C(c3ccc(F)cc3)c3cccc4c3c(cc3nc5ccccc5nc34)O2)cc1

photoluminescence quantum yield (in C1CCCCC1): 0.88
photoluminescence quantum yield (in CC#N): 0.88
photoluminescence quantum yield (in CO): 0.041
photoluminescence quantum yield (in ClC(Cl)Cl): 0.99
SMILES: CC(=O)c1ccc(-c2nc3ccc(N(C)C)cc3s2)cc1

photoluminescence quantum yield (in O): 0.022
SMILES: [NH3+]C(Cc1ccccc1)C(=O)[O-] (stereo unspecified)

photoluminescence quantum yield (in CCO): 0.163
photoluminescence quantum yield (in ClCCl): 0.336
photoluminescence quantum yield (in O): 0.039
SMILES: CC[N+](CC)=c1ccc2c(C(F)(F)F)c3c(oc-2c1)-c1ccc(N(C)C)cc1CC3

photoluminescence quantum yield (in ClCCCl): 0.016
SMILES: N#Cc1ccc2nc3c(=O)[nH]c(=O)[nH]c3nc2c1

photoluminescence quantum yield (in ClCCl): 0.55
SMILES: COC(=O)c1ccc(Oc2ccc3c4c(cccc24)C(=O)N(c2c(C(C)C)cccc2C(C)C)C3=O)cc1

photoluminescence quantum yield (in CC#N): 0.47
photoluminescence quantum yield (in CCCCCC): 0.31
SMILES: c1ccc2c(c1)[nH]c1ncccc12

photoluminescence quantum yield (in C1CCOC1): 0.031
photoluminescence quantum yield (in CC#N): 0.026
photoluminescence quantum yield (in CC(C)O): 0.071
photoluminescence quantum yield (in CC(O)CO): 0.1
photoluminescence quantum yield (in CCCCO): 0.079
photoluminescence quantum yield (in CCCO): 0.074
photoluminescence quantum yield (in CCO): 0.034
photoluminescence quantum yield (in CO): 0.076
photoluminescence quantum yield (in NC=O): 0.083
photoluminescence quantum yield (in O): 0.11
photoluminescence quantum yield (in O=CO): 0.17
SMILES: N#Cc1ccc(C[C@H](N)C(=O)O)cc1

photoluminescence quantum yield (in ClCCl): 0.12
SMILES: CN(C)c1ccc(-c2nc(-c3ccccc3)c3ccccn23)cc1

photoluminescence quantum yield (in ClCCl): 0.66
SMILES: c1ccc(N(c2ccccc2)c2ccc(-c3ccc4c(c3)C3(c5cc(-c6ccc(N(c7ccccc7)c7ccccc7)cc6)ccc5S4)c4ccccc4-c4ccccc43)cc2)cc1

photoluminescence quantum yield (in CC#N): 0.05
photoluminescence quantum yield (in CCCCCC): 0.04
SMILES: C/C=C/c1cc(OC)cc(OC)c1

photoluminescence quantum yield (in ClCCl): 0.61
SMILES: C(=C\c1ncc2ccccc2n1)/c1ccc(N(c2ccccc2)c2ccccc2)cc1

photoluminescence quantum yield (in CCO): 0.0155
photoluminescence quantum yield (in ClCCl): 0.0368
photoluminescence quantum yield (in O): 0.101
SMILES: Oc1ccccc1-c1nc2ccccc2s1

photoluminescence quantum yield (in CN(C)C=O): 0.5
photoluminescence quantum yield (in ClC(Cl)Cl): 0.7
SMILES: CCCCCCCCCCOc1ccc2c3c(oc2c1)C1=C2C(=O)N4C=Cc5c(oc6cc(OCCCCCCCCCC)ccc56)C4=C2C(=O)N1C=C3

photoluminescence quantum yield (in ClC(Cl)Cl): 0.62
SMILES: C=Cc1ccc(-c2ccc(-c3nnc(-c4ccc(-c5nnc(-c6ccc(-c7ccc(C=C)cc7)s6)o5)cc4)o3)s2)cc1

photoluminescence quantum yield (in ClCCl): 0.08
SMILES: CCN(CC)c1ccc2c(-c3ccccc3C(=O)O)c3c([o+]c2c1)/C(=C/c1ccc2c(c1)c1ccccc1n2CC)CCC3

photoluminescence quantum yield (in C1CCOC1): 0.062
photoluminescence quantum yield (in C1COCCO1): 0.028
photoluminescence quantum yield (in CC#N): 0.082
photoluminescence quantum yield (in CCCCCCC): 0.05
photoluminescence quantum yield (in CCO): 0.067
photoluminescence quantum yield (in CO): 0.066
photoluminescence quantum yield (in O): 0.38
SMILES: CC1(C)CC(=O)C2=C(C1)Oc1ccc3cc(O)ccc3c1C2c1ccccn1 (stereo unspecified)

photoluminescence quantum yield (in ClCCl): 0.72
SMILES: COCCOCCOCCOCC(COCCOCCOCCOC)Oc1cc(/C=C/c2ccc(/C=C(\C#N)c3ccccc3)cc2)c(OC(COCCOCCOCCOC)COCCOCCOCCOC)cc1/C=C/c1ccc(/C=C(\C#N)c2ccccc2)cc1

photoluminescence quantum yield (in ClCCl): 0.025
SMILES: O=Cc1ccc(/C=C/c2nc(N3CCOCC3)c3c([n+]2[O-])CCCC3)cc1

photoluminescence quantum yield (in ClC(Cl)Cl): 0.14
SMILES: Cc1cc(=O)oc2cc3c4ccc(C(C)(C)C)cc4c4cc(C(C)(C)C)ccc4c3cc12

photoluminescence quantum yield [1]: 0.89
SMILES: CC1(C)c2ccccc2N(c2ccc3nc4c5ccc(N6c7ccccc7C(C)(C)c7ccccc76)cc5c5cc(N6c7ccccc7C(C)(C)c7ccccc76)ccc5c4nc3c2)c2ccccc21

photoluminescence quantum yield (in C1CCCCC1): 0.67
photoluminescence quantum yield (in CC#N): 0.21
SMILES: C[Si](C)(c1cccc2ccccc12)[Si](C)(C)c1c2ccccc2cc2ccccc12

photoluminescence quantum yield (in CN(C)C=O): 0.056
photoluminescence quantum yield (in O): 0.622
SMILES: CC[N+]1(CC)CN2C(C)=CC(C)=C(C(=O)O)C2=N1
